Assay results published in patent publication US4874765A, “1,4-Disubstituted piperazines having dopaminergic activity” (Richter Gedeon Vegyeszeti Gyar, priority 1986, dated 1989).
Where two headings read alike, the source gives them in different places.

How the values were obtained:
[1] = test system: striatum dopamine level; assay: Protection against MPTP-induced striatal dopamine decrease in mice; type: in vivo, male CFY mice; details: for inhibition in vivo at 100 µmol/kg: Mus musculus, 0.1 mmole/kg, 1 hour before MPTP 70 mg/kg s.c., striatum DA 72-96 hours after MPTP
Procedure: The dopaminergic activity of the compounds of the invention was determined by in vitro and in vivo animals tests. On the examination of the in vivo activity, the protective capability of the compounds against the neurotoxic effect of 1-methyl-4-phenyl-1,2,3,6-tetrahydropyridine (MPTP) was also studied. […] Davis et al.: Psychiat.
(§1) For these investigations male CFY mice (LATI, Godollo, Hungary) weighing 20-25 g were used. The compounds to be tested were homogenized in 1% Tween 80 solution and administered to the animals in a dose of 0.1 mmole/kg (in the route given in the Table) 1 hour before administering MPTP. MPTP was freshly dissolved in physiological saline solution and subcutaneously given to the mice in a dose of 70 mg/kg. 72 to 96 hours after the administration of MPTP the animals were killed by decapitation, their brain was rapidly removed, cooled in an ice-cold physiological saline solution, the striatum was excised and refrigerated in dry ice.
The tissues (in a refrigerated condition) were weighed and homogenized in 1 ml of 0.4N perchloric acid solution containing 0.5% of Na2 S2 O5, 0.25 % of Na2 EDTA and 100 ng of M-methyldopamine (internal standard for the determination of catecholamines) in an Ultra-Turrax equipment. The homogenate was centrifuged at 4° C. at 20,000 g for 10 minutes, then 0.8 ml of the supernatent was taken out. After adding 20 mg of activated aluminum oxide, the pH value of the solution was adjusted to 8 by adding 0.5M Tris solution and the tubes were shaken for 20 minutes. The aluminium oxide was settled, the supernatent was removed by suction and washed 3 times with 5 ml of distilled water each. The catecholamines adsorbed on the aluminium oxide were eluted with 1 ml of 0.05N perchloric acid. From a part of the eluate, dopamine was determined by using high pressure liquid chromatography by means of electrochemical detection (Labor MIM Oe-320 pump, 4×150 mm Nucleosil 5 C-18 analytical column and 4×20 mm Nucleosil 5 C-18 supplementary column; electrochemical detector fitted with a glassy-carbon working electrode and an Ag/AgCl2 reference electrode; Eltron potentiostat, LKB 2110 2-channel recorder; with an oxidation potential of 600 mV and as mobile phase 0.1M NaH2 PO4, 1 mM Na2 EDTA, 1 mM octanesulfonic acid containing 8.5% of acetonitrile; flow rate 1 ml/minute).
The protection against the dopamine decrease induced by MPTP was calculated as follows: [formula]
(§2) As a referenced drug, trihexyphenidyl hydrochloride (α-cyclohexyl-α-phenyl-1-piperidinepropanol hydrochloride) was used in a dose of 10 mg/kg (<0.1 mmole/kg).

[2] = test system: dopaminergic system; details: cited from earlier work
[3] = test system: dopaminergic system; details: cited from earlier work; remark: listed apart in the source
[4] = dose higher than 10 mg/kg; mice
Procedure: as §1, §2

[5] = ip, read-out: DA decrease induced by MPTP, % inhibition, i.p. route
[6] = po, read-out: DA decrease induced by MPTP, % inhibition, p.o. route

| SMILES | inhibition in vivo at 100 µmol/kg [1, 5] | inhibition in vivo at 100 µmol/kg [1, 6] | further results |
| --- | --- | --- | --- |
| C=CCN1CCN(CCOC(c2ccc(F)cc2)c2ccc(F)cc2)CC1 [Compound 1, 1-[2[bis(4-fluorophenyl)methoxy]ethyl]-4-(2-propenyl)-piperazine] | 98% | 100% |  |
| CCCN1CCN(CCOC(c2ccc(F)cc2)c2ccc(F)cc2)CC1 [Compound 2] | 100% |  |  |
| C=CCN1CCN(CCOC(c2ccccc2)c2ccc(F)cc2)CC1 (centres unmarked) [Compound 3, 1-[2-[(4-fluorophenyl)-phenylmethoxy]ethyl]-4-(2-propenyl)piperazine] |  | 100% |  |
| C=CCN1CCN(CCOC(c2ccc(F)cc2)c2ccc(Cl)cc2)CC1 (centres unmarked) [Compound 4, 1-[2-[(4-chlorophenyl)-(4-fluorophenyl)methoxy]-ethyl]-4-(2-propenyl)piperazine] | 100% |  |  |
| C=CCN1CCN(CCOC(c2ccc(F)cc2)c2ccc(Br)cc2)CC1 (centres unmarked) [Compound 5, 1-[2-[(4-bromophenyl)-(4-fluorophenyl)methoxy]-ethyl]-4-(2-propenyl)piperazine] | 100% |  |  |
| C=CCN1CCN(CCOC(c2ccc(Cl)cc2)c2ccc(Cl)cc2)CC1 [Compound 6, 1-[2-[bis(4-chlorophenyl)methoxy]ethyl]-4-(2-propenyl)piperazine] | 100% |  |  |
| C=CCN1CCN(CCOC(c2ccccc2)c2ccc(Cl)c(Cl)c2)CC1 (centres unmarked) [Compound 7, 1-[2-[(3,4-dichlorophenyl)-phenylmethoxy]ethyl]--4-(2-propenyl)-piperazine] | 100% | 98% |  |
| CCCN1CCN(CCOC(c2ccc(F)cc2)c2ccc(Cl)cc2)CC1 (centres unmarked) [Compound 8, 1-[2-[(4-chlorophenyl)-(4-flurophenyl)methoxy]-ethyl]-4-propyl-piperazine] | 95% |  |  |
| CCCCN1CCN(CCOC(c2ccc(F)cc2)c2ccc(F)cc2)CC1 [Compound 9, 1-[2-[bis(4-flurophenyl)methoxy]ethyl]-4-butyl-piperazine] | 100% |  |  |
| C=CCN1CCN(CCOC(C)(c2ccc(F)cc2)c2ccc(F)cc2)CC1 [Compound 10, 1-[2-[1-bis(4-fluorophenyl)ethoxy]ethyl]-4-(2-propenyl)piperazine] | 89% |  |  |
| CCCCCC(=O)N1CCN(CCOC(c2ccc(F)cc2)c2ccc(F)cc2)CC1 [Compound 11, 1-[2-[bis(4-fluorophenyl)methoxy]ethyl]-4-(1-oxo-hexyl)piperazine] | 82% |  |  |
| C#CCN1CCN(CCOC(c2ccc(F)cc2)c2ccc(F)cc2)CC1 [Compound 12, 1-[2-[bis(4-fluorophenyl)methoxy]ethyl]-4-(2--propynyl)piperazine] |  | 94% |  |
| C=C(C)CN1CCN(CCOC(c2ccc(F)cc2)c2ccc(F)cc2)CC1 [Compound 13, 1-[2-[bis(4-fluorophenyl)methoxy]ethyl]-4-(2-methyl--2-propenyl)-piperazine] |  | 95% |  |
| CCC(=O)N1CCN(CCOC(c2ccc(F)cc2)c2ccc(F)cc2)CC1 [Compound 14, 1-[2-[bis(4-fluorophenyl)methoxy]ethyl]-4-(1-oxo-propyl)piperazine] |  | 71% |  |
| CCCCN1CCN(CCOC(c2ccccc2)c2ccc(Cl)c(Cl)c2)CC1 (centres unmarked) [Compound 15] | 98% |  |  |
| CCCCN1CCN(CCOC(c2ccc(F)cc2)c2ccc(Cl)cc2)CC1 (centres unmarked) [Compound 16, 1-[2-[(4-chlorophenyl)-(4-fluorophenyl)methoxy]-ethyl]-4-butylpiperazine] |  | 86% |  |
| CCCCCCN1CCN(CCOC(c2ccc(F)cc2)c2ccc(F)cc2)CC1 [Compound 17, 1-[2-[bis(4-fluorophenyl)methoxy]ethyl]-4-hexyl-piperazine] |  | 89% |  |
| CN1CC=C(c2ccccc2)CC1.Cl [MPTP, 1-methyl-4-phenyl-1,2,3,6-tetrahydropyridine hydrochloride] |  |  | degeneration of the dopaminergic system in men and monkeys [2]: causes the degeneration of the dopaminergic system; selective dopaminergic system-damaging effect on mice [3]: selective dopaminergic system-damaging effect |
| Cl.OC(CCN1CCCCC1)(c1ccccc1)C1CCCCC1 (stereo not drawn) [Trihexyphenidyl.HCl, α-cyclohexyl-α-phenyl-1-piperidinepropanol hydrochloride, reference compound] |  |  | DA decrease induced by MPTP, % inhibition, i.p. route (reference drug) ([1]; i.p., 10 mg/kg (<0.1 mmole/kg), before MPTP 70 mg/kg s.c.): 7%; lethality at doses above 10 mg/kg [4]: The animals perished on administration of a higher dose |
